{"source": "ChEMBL document CHEMBL1201862", "about": "“PubChem BioAssay data set” (2004)", "assay_in_all_cases": "inhibition of tumour cell growth, NCI panel, 48 h", "key": {"A498": {"tested_on": "A498"}, "BT-549": {"tested_on": "BT-549"}, "HCT-116": {"tested_on": "HCT-116"}, "HCT-15": {"tested_on": "HCT-15"}, "HOP-92": {"tested_on": "HOP-92"}, "IGROV-1": {"tested_on": "IGROV-1"}, "K562": {"tested_on": "K562"}, "KM12": {"tested_on": "KM12"}, "LOX IMVI": {"tested_on": "LOX IMVI"}, "MCF7": {"tested_on": "MCF7"}, "MDA-MB-231": {"tested_on": "MDA-MB-231"}, "NCI-H226": {"tested_on": "NCI-H226"}, "OVCAR-5": {"tested_on": "OVCAR-5"}, "PC-3": {"tested_on": "PC-3"}, "RXF 393": {"tested_on": "RXF 393"}, "SK-MEL-28": {"tested_on": "SK-MEL-28"}, "SNB-19": {"tested_on": "SNB-19"}, "SR": {"tested_on": "SR"}, "T47D": {"tested_on": "T47D"}, "UACC-62": {"tested_on": "UACC-62"}}, "note": "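In this assay, cells in 96-well plates receive the compound at five concentrations for 48 hours. Endpoints are linearly interpolated between the surrounding concentrations. GI50 is the concentration that inhibits growth by half.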 The source made the active and inactive calls. Rule as the data show it: active = GI50 up to about 1.1 µM and inactive = higher.", "data": [{"smiles": "C#Cc1nc(N)c2ncn(C3OC(COS(N)(=O)=O)C(O)C3O)c2n1", "note": "(centres undefined)", "values": [{"measurement": "GI50", "setting": "A498", "value": "< 0.0148 µM (active)"}, {"measurement": "GI50", "setting": "BT-549", "value": "< 0.01 µM (active)"}, {"measurement": "GI50", "setting": "HCT-116", "value": "0.0184 µM (active)"}, {"measurement": "GI50", "setting": "HCT-15", "value": "< 0.0214", "unit": "µM"}, {"measurement": "GI50", "setting": "HOP-92", "value": "< 0.01 µM (active)"}, {"measurement": "GI50", "setting": "IGROV-1", "value": "0.0291 µM (active)"}, {"measurement": "GI50", "setting": "K562", "value": "0.0131 µM (active)"}, {"measurement": "GI50", "setting": "KM12", "value": "< 0.0193 µM (active)"}, {"measurement": "GI50", "setting": "LOX IMVI", "value": "< 0.0176 µM (active)"}, {"measurement": "GI50", "setting": "MCF7", "value": "0.0124 µM (active)"}, {"measurement": "GI50", "setting": "MDA-MB-231", "value": "< 0.0185 µM (active)"}, {"measurement": "GI50", "setting": "NCI-H226", "value": "0.0158 µM (active)"}, {"measurement": "GI50", "setting": "OVCAR-5", "value": "< 0.0148 µM (active)"}, {"measurement": "GI50", "setting": "PC-3", "value": "< 0.0204 µM (active)"}, {"measurement": "GI50", "setting": "RXF 393", "value": "< 0.0179 µM (active)"}, {"measurement": "GI50", "setting": "SK-MEL-28", "value": "0.0374 µM (active)"}, {"measurement": "GI50", "setting": "SNB-19", "value": "0.0208 µM (active)"}, {"measurement": "GI50", "setting": "SR", "value": "< 0.01 µM (active)"}, {"measurement": "GI50", "setting": "T47D", "value": "< 0.01 µM (active)"}, {"measurement": "GI50", "setting": "UACC-62", "value": "0.0537 µM (active)"}]}, {"smiles": "CO[P@@]1(=O)O[C@@H](c2ccccc2)[C@H](O)[C@]1(O)c1ccccc1", "values": [{"measurement": "GI50", "setting": "A498", "value": "> 100 µM (inactive)"}, {"measurement": "GI50", "setting": "BT-549", "value": "> 100 µM (inactive)"}, {"measurement": "GI50", "setting": "HCT-116", "value": "> 100 µM (inactive)"}, {"measurement": "GI50", "setting": "HCT-15", "value": "> 100", "unit": "µM"}, {"measurement": "GI50", "setting": "HOP-92", "value": "> 100 µM (inactive)"}, {"measurement": "GI50", "setting": "IGROV-1", "value": "> 100 µM (inactive)"}, {"measurement": "GI50", "setting": "K562", "value": "> 100 µM (inactive)"}, {"measurement": "GI50", "setting": "KM12", "value": "> 100 µM (inactive)"}, {"measurement": "GI50", "setting": "LOX IMVI", "value": "> 100 µM (inactive)"}, {"measurement": "GI50", "setting": "MCF7", "value": "> 100 µM (inactive)"}, {"measurement": "GI50", "setting": "MDA-MB-231", "value": "> 100 µM (inactive)"}, {"measurement": "GI50", "setting": "NCI-H226", "value": "> 100 µM (inactive)"}, {"measurement": "GI50", "setting": "PC-3", "value": "> 100 µM (inactive)"}, {"measurement": "GI50", "setting": "RXF 393", "value": "> 100 µM (inactive)"}, {"measurement": "GI50", "setting": "SK-MEL-28", "value": "> 100 µM (inactive)"}, {"measurement": "GI50", "setting": "SNB-19", "value": "> 100 µM (inactive)"}, {"measurement": "GI50", "setting": "SR", "value": "> 100 µM (inactive)"}, {"measurement": "GI50", "setting": "T47D", "value": "> 100 µM (inactive)"}, {"measurement": "GI50", "setting": "UACC-62", "value": "> 100 µM (inactive)"}]}, {"smiles": "C=CCn1c(N)c(C#N)c(C#N)c1CCC", "values": [{"measurement": "GI50", "setting": "A498", "value": "> 100 µM (inactive)"}, {"measurement": "GI50", "setting": "BT-549", "value": "> 100 µM (inactive)"}, {"measurement": "GI50", "setting": "HCT-15", "value": "> 100", "unit": "µM"}, {"measurement": "GI50", "setting": "HOP-92", "value": "> 100 µM (inactive)"}, {"measurement": "GI50", "setting": "IGROV-1", "value": "> 100 µM (inactive)"}, {"measurement": "GI50", "setting": "K562", "value": "> 100 µM (inactive)"}, {"measurement": "GI50", "setting": "KM12", "value": "> 100 µM (inactive)"}, {"measurement": "GI50", "setting": "LOX IMVI", "value": "> 100 µM (inactive)"}, {"measurement": "GI50", "setting": "MCF7", "value": "> 100 µM (inactive)"}, {"measurement": "GI50", "setting": "MDA-MB-231", "value": "> 100 µM (inactive)"}, {"measurement": "GI50", "setting": "NCI-H226", "value": "> 100 µM (inactive)"}, {"measurement": "GI50", "setting": "OVCAR-5", "value": "> 100 µM (inactive)"}, {"measurement": "GI50", "setting": "PC-3", "value": "> 100 µM (inactive)"}, {"measurement": "GI50", "setting": "RXF 393", "value": "> 100 µM (inactive)"}, {"measurement": "GI50", "setting": "SNB-19", "value": "> 100 µM (inactive)"}, {"measurement": "GI50", "setting": "SR", "value": "22.5 µM (inactive)"}, {"measurement": "GI50", "setting": "T47D", "value": "> 100 µM (inactive)"}, {"measurement": "GI50", "setting": "UACC-62", "value": "> 100 µM (inactive)"}]}, {"smiles": "OC1(c2ccc(Cl)cc2)C(N2CCCC2)c2ccccc2C2=NCCN21", "note": "(centres undefined)", "values": [{"measurement": "GI50", "setting": "A498", "value": "21.2 µM (inactive)"}, {"measurement": "GI50", "setting": "BT-549", "value": "27 µM (inactive)"}, {"measurement": "GI50", "setting": "HCT-116", "value": "10.9 µM (inactive)"}, {"measurement": "GI50", "setting": "HCT-15", "value": 21.4, "unit": "µM"}, {"measurement": "GI50", "setting": "HOP-92", "value": "12.6 µM (inactive)"}, {"measurement": "GI50", "setting": "IGROV-1", "value": "16.1 µM (inactive)"}, {"measurement": "GI50", "setting": "K562", "value": "13.6 µM (inactive)"}, {"measurement": "GI50", "setting": "KM12", "value": "20.1 µM (inactive)"}, {"measurement": "GI50", "setting": "LOX IMVI", "value": "18.1 µM (inactive)"}, {"measurement": "GI50", "setting": "MCF7", "value": "28.5 µM (inactive)"}, {"measurement": "GI50", "setting": "MDA-MB-231", "value": "24.3 µM (inactive)"}, {"measurement": "GI50", "setting": "OVCAR-5", "value": "43.7 µM (inactive)"}, {"measurement": "GI50", "setting": "PC-3", "value": "30 µM (inactive)"}, {"measurement": "GI50", "setting": "RXF 393", "value": "29.1 µM (inactive)"}, {"measurement": "GI50", "setting": "SK-MEL-28", "value": "13.9 µM (inactive)"}, {"measurement": "GI50", "setting": "SNB-19", "value": "54.3 µM (inactive)"}, {"measurement": "GI50", "setting": "SR", "value": "15.1 µM (inactive)"}, {"measurement": "GI50", "setting": "T47D", "value": "17.7 µM (inactive)"}, {"measurement": "GI50", "setting": "UACC-62", "value": "16.6 µM (inactive)"}]}, {"smiles": "CCOC(=O)c1cc2c3c(c(C(C)=O)c(O)c2[nH]1)N(CC(C)CC)CC3", "note": "(centres undefined)", "values": [{"measurement": "GI50", "setting": "A498", "value": "80.9 µM (inactive)"}, {"measurement": "GI50", "setting": "BT-549", "value": "45.5 µM (inactive)"}, {"measurement": "GI50", "setting": "HCT-116", "value": "42.3 µM (inactive)"}, {"measurement": "GI50", "setting": "HCT-15", "value": 70.3, "unit": "µM"}, {"measurement": "GI50", "setting": "HOP-92", "value": "45.3 µM (inactive)"}, {"measurement": "GI50", "setting": "IGROV-1", "value": "> 100 µM (inactive)"}, {"measurement": "GI50", "setting": "K562", "value": "32.5 µM (inactive)"}, {"measurement": "GI50", "setting": "KM12", "value": "56.4 µM (inactive)"}, {"measurement": "GI50", "setting": "LOX IMVI", "value": "42.2 µM (inactive)"}, {"measurement": "GI50", "setting": "MCF7", "value": "> 100 µM (inactive)"}, {"measurement": "GI50", "setting": "MDA-MB-231", "value": "33 µM (inactive)"}, {"measurement": "GI50", "setting": "NCI-H226", "value": "41.5 µM (inactive)"}, {"measurement": "GI50", "setting": "PC-3", "value": "66.8 µM (inactive)"}, {"measurement": "GI50", "setting": "RXF 393", "value": "34.6 µM (inactive)"}, {"measurement": "GI50", "setting": "SK-MEL-28", "value": "> 100 µM (inactive)"}, {"measurement": "GI50", "setting": "SNB-19", "value": "92 µM (inactive)"}, {"measurement": "GI50", "setting": "SR", "value": "27.4 µM (inactive)"}, {"measurement": "GI50", "setting": "T47D", "value": "21.9 µM (inactive)"}, {"measurement": "GI50", "setting": "UACC-62", "value": "71.6 µM (inactive)"}]}, {"smiles": "CC[C@H](C)C1=C(O)[N@+]2([O-])Oc3ccc(-c4c(O)c(O)c(-c5ccc(O)cc5)c(OC(C)=O)c4OC(C)=O)cc3O[C@]2([C@@H](C)CC)C(=O)N1O", "values": [{"measurement": "GI50", "setting": "A498", "value": "13.9 µM (inactive)"}, {"measurement": "GI50", "setting": "BT-549", "value": "25.6 µM (inactive)"}, {"measurement": "GI50", "setting": "HCT-116", "value": "10.1 µM (inactive)"}, {"measurement": "GI50", "setting": "HCT-15", "value": 17, "unit": "µM"}, {"measurement": "GI50", "setting": "HOP-92", "value": "6.52 µM (inactive)"}, {"measurement": "GI50", "setting": "IGROV-1", "value": "6.4 µM (inactive)"}, {"measurement": "GI50", "setting": "K562", "value": "21.4 µM (inactive)"}, {"measurement": "GI50", "setting": "KM12", "value": "33.7 µM (inactive)"}, {"measurement": "GI50", "setting": "LOX IMVI", "value": "22.4 µM (inactive)"}, {"measurement": "GI50", "setting": "MCF7", "value": "18.7 µM (inactive)"}, {"measurement": "GI50", "setting": "MDA-MB-231", "value": "> 50 µM (inactive)"}, {"measurement": "GI50", "setting": "OVCAR-5", "value": "> 50 µM (inactive)"}, {"measurement": "GI50", "setting": "PC-3", "value": "22.2 µM (inactive)"}, {"measurement": "GI50", "setting": "RXF 393", "value": "> 50 µM (inactive)"}, {"measurement": "GI50", "setting": "SK-MEL-28", "value": "46.8 µM (inactive)"}, {"measurement": "GI50", "setting": "SNB-19", "value": "47.3 µM (inactive)"}, {"measurement": "GI50", "setting": "SR", "value": "23.5 µM (inactive)"}, {"measurement": "GI50", "setting": "T47D", "value": "> 50 µM (inactive)"}, {"measurement": "GI50", "setting": "UACC-62", "value": "17.4 µM (inactive)"}]}]}
